Results on 17 compounds are retold here after patent publication EP0339358B1, “Pyrazolopyridine type mevalonolactones” (NISSAN CHEMICAL INDUSTRIES LTD., priority 1988, dated 1989).

In general, mortality refers to the percentage killed. High values mean fewer survivors, low ones more survivors.

One data set deals with cholesterol biosynthesis. Kind of data set: Test C: Inhibition of cholesterol biosynthesis in vivo. Also on record: species or system Male Sprague-Dawley rats. To be noted: oral administration of 0.2 mg/kg; relative to the measured value of the control group; serum nonsaponifiable lipids. On the procedure: Male Sprague-Dawley rats weighing about 150 g were fed normal Purina chow diet and water ad libitum, and exposed to 12 hours light/12 hours dark lighting pattern (2:00 PM - 2:00 AM dark) prior to use for in vivo inhibition test of cholesterol biosynthesis. Animals were separated groups consisting of five rats as to be average mean body weight in each groups. Test compounds at dosage of 0.02-0.2 mg/kg body weight (0.4 ml/100 g body weight), were dissolved in water or suspended in 0.5% methyl cellulose and orally administered at 2-3 hours before mid-dark (8:00 PM), while cholesterol biosynthesis reaches to maximum in rats. As control, rats were orally administered only water or vehicle. At 90 minutes after sample administration, rats were injected intraperitoneally with 10 »Ci of [2-¹⁴C]sodium acetate at volume of 0.2 ml per one. 2 Hours later, blood samples were obtained and serum were separated immediately. Total lipids were extracted according to the method of Folch et al. and saponified with EtOH-KOH. Nonsaponifiable lipids were extracted with petroleum ether and radio activity incorporated into nonsaponifiable lipids was counted.
Inhibitory activity was indicated as percent decrease of counts in testing groups (DPM/2 ml serum/2 hours) from that in control group.

The nature of the next data set: Test D: Acute toxicity. To be noted: mouse, in vivo, po, 1000 mg/kg; orally administered 1,000 mg/kg, 0.5% CMC suspension; mortality after seven days; group of three mice. On the procedure: A 0.5% CMC suspension of a test compound was orally administered to ICR male mice (group of three mice). The acute toxicity was determined based on the mortality after seven days. With compound I-5-1, I-5-2, I-5-4, I-5-7, I-5-10, I-5-11, I-5-12, I-5-14 and I-5-15 of the present invention, the mortality was 0% even when they were orally administered in an amount of 1,000 mg/kg, respectively.

The target in another data set is T1, Hep G2 cells (Homo sapiens, UniProt P04035).
T1 sequence (P04035 1-888): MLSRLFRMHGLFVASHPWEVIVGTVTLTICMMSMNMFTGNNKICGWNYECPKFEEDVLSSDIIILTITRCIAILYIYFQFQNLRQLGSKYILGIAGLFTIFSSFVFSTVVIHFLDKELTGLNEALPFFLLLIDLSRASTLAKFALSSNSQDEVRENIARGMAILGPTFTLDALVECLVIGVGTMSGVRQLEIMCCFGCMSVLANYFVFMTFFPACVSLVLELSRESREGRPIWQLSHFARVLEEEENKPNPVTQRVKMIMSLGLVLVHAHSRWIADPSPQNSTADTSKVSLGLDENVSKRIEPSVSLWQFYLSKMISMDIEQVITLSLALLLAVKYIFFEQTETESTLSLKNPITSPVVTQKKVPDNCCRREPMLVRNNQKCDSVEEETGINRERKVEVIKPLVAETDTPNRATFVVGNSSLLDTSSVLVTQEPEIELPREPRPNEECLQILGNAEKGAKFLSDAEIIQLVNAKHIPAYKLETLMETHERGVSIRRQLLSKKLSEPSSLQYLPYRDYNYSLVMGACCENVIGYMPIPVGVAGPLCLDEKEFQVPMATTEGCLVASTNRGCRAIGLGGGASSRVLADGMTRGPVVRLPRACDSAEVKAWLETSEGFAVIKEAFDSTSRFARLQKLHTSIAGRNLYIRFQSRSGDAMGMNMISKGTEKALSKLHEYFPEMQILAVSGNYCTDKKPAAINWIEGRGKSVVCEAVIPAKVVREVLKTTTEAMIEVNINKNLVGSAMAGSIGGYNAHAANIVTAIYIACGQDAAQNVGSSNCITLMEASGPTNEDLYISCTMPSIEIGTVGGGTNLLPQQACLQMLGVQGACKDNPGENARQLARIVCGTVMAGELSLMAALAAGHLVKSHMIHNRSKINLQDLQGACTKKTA
Kind of data set: Test B-1: Inhibition of cholesterol biosynthesis in culture cells ([2-14C]sodium acetate added at 0 hr after addition of compounds). The data set is classed as cell-based. To be noted: HepG2, concentration of 1.0 x 10⁻⁷ mol/ℓ, read-out: Inhibitory activities %. Here is the method:
Hep G2 cells at over 5th passage were seeded to 12 well plates and incubated with Dulbecco's modified Eagle (DME) medium containing 10% of fetal bovine serum (FBS) at 37°C, 5% CO₂ until cells were confluent for about 7 days. Cells were exposed to the DME medium contaiing 5% of lipoprotein deficient serum (LpDS) prepared by ultracentrifugation method for over 24 hours. Medium was changed to 0.5 ml of fresh 5% LpDS containing DME before assay and 10 »l of test compound solution dissolved in water or DMSO were added. 0.2 »Ci of [2-¹⁴C]sodium acetate (20 »l) was added at 0 hr(B-1) or 4 hrs(B-2) after addition of compounds. After 4 hrs further incubation with [2-¹⁴C]sodium acetate, medium was removed and cells were washed with phosphate buffered saline (PBS) chilled at 4°C. Cells were scraped with rubber policeman and collected to tubes with PBS and digested with 0.2 ml of 0.5 N KOH at 37°C. Aliquot of digestion was used for protein analysis and remaining was saponified with 1 ml of 15% EtOH-KOH at 75°C for 1 hour. Nonsaponifiable lipids were extracted with petroleum ether and ¹⁴C radioactivity was counted. Counts were revised by cell protein and indicated with DPM/mg protein. Inhibitory activity of compounds was indicated with IC50.

Turning to `CCC(C)C(=O)OC1CC(O)C=C2C=CC(C)C(CCC(O)CC(O)CC(=O)O)C21` (stereo not shown) [CS-514, reference compound], the “percent decrease of counts” value in the data set with cholesterol biosynthesis was determined as 39%.

With `Cc1nn(C)c2nc(C(C)C)c(/C=C/C(O)CC(O)CC(=O)O)c(-c3ccc(F)cc3)c12` (stereo not shown) [Compound I-5-1, Sodium (E)-7-[4′-(4˝-fluorophenyl)-1′,3′-dimethyl-6′-(1˝-methylethyl)pyrazolo[3,4-b]pyridin-5#MIN#-yl]-3,5-dihydroxyhept-6-enoate], the mortality at 168 h in the data set “Test D: Acute toxicity” came to 0%.

For `Cc1nn(-c2ccccc2)c2nc(C(C)C)c(/C=C/C(O)CC(O)CC(=O)O)c(-c3ccc(F)cc3)c12` (stereo not shown) [Compound I-5-2], the mortality at 168 h in the data set “Test D: Acute toxicity” worked out at 0%.

In the case of `Cc1c2c(-c3ccc(F)cc3)c(/C=C/C(O)CC(O)CC(=O)O)c(C(C)C)nc2nn1-c1ccccc1` (stereo not shown) [Compound I-5-3], on Hep G2 cells, the inhibition at 0.1 µM amounted to 36.3%.

In the case of `CC(C)c1nc2c(c(-c3ccccc3)nn2C)c(-c2ccc(F)cc2)c1/C=C/C(O)CC(O)CC(=O)O` (stereo not shown) [Compound I-5-4], in “Test D: Acute toxicity”, the mortality at 168 h turned out to be 0%. Moreover, the “percent decrease of counts” value in the data set with cholesterol biosynthesis is on record as 53%.

Turning to `Cc1nn(C)c2nc(C3CC3)c(/C=C/C(O)CC(O)CC(=O)O)c(-c3ccc(F)cc3)c12` (stereo not shown) [Compound I-5-5], the inhibition at 0.1 µM on Hep G2 cells came out at 78.2%. Further, in the data set on cholesterol biosynthesis, the “percent decrease of counts” value worked out at 49%.

For `CC(C)c1nc2c(cnn2-c2ccccc2)c(-c2ccc(F)cc2)c1/C=C/C(O)CC(O)CC(=O)O` (stereo not shown) [Compound I-5-6], at Hep G2 cells, the inhibition at 0.1 µM is 53.3%.

In “Test D: Acute toxicity”, `Cc1nn(C(C)(C)C)c2nc(C(C)C)c(/C=C/C(O)CC(O)CC(=O)O)c(-c3ccc(F)cc3)c12` (stereo not shown) [Compound I-5-7] yielded a mortality at 168 h of 0%. The “percent decrease of counts” value in the data set on cholesterol biosynthesis is listed as 52%.

For `CC(C)c1nc2c(c(C3CC3)nn2C)c(-c2ccc(F)cc2)c1/C=C/C(O)CC(O)CC(=O)O` (stereo not shown) [Compound I-5-9], the inhibition at 0.1 µM at Hep G2 cells turned out to be 55.3%.

`Cc1nn(Cc2ccccc2)c2nc(C(C)C)c(/C=C/C(O)CC(O)CC(=O)O)c(-c3ccc(F)cc3)c12` (stereo not shown) [Compound I-5-10] came in with a mortality at 168 h in the data set “Test D: Acute toxicity” of 0%.

In the data set “Test D: Acute toxicity”, `CC(C)c1nc2c(c(-c3ccc(Cl)cc3)nn2C)c(-c2ccc(F)cc2)c1/C=C/C(O)CC(O)CC(=O)O` (stereo not shown) [Compound I-5-11] yielded a mortality at 168 h of 0%. Also, the inhibition at 0.1 µM at Hep G2 cells turned out to be 58.8%.

For `CC(C)c1nc2c(c(C3CC3)nn2-c2ccccc2)c(-c2ccc(F)cc2)c1/C=C/C(O)CC(O)CC(=O)O` (stereo not shown) [Compound I-5-12], in “Test D: Acute toxicity”, the mortality at 168 h was found to be 0%. The inhibition at 0.1 µM on Hep G2 cells was found to be 47.3%.

Regarding `COc1ccc(-n2nc(C)c3c(-c4ccc(F)cc4)c(/C=C/C(O)CC(O)CC(=O)O)c(C(C)C)nc32)cc1` (stereo not shown) [Compound I-5-13], at Hep G2 cells, the inhibition at 0.1 µM came to 55.5%.

`Cn1nc(-c2ccccc2)c2c(-c3ccc(F)cc3)c(/C=C/C(O)CC(O)CC(=O)O)c(C3CC3)nc21` (stereo not shown) [Compound I-5-14]: in the data set “Test D: Acute toxicity”, the mortality at 168 h turned out to be 0%.

In the data set “Test D: Acute toxicity”, `Cc1nn(C(C)(C)C)c2nc(C3CC3)c(/C=C/C(O)CC(O)CC(=O)O)c(-c3ccc(F)cc3)c12` (stereo not shown) [Compound I-5-15] returned a mortality at 168 h of 0%.

For the compound `CC(C)(C)n1nc(C2CC2)c2c(-c3ccc(F)cc3)c(/C=C/C(O)CC(O)CC(=O)O)c(C3CC3)nc21` (stereo not shown) [Compound I-5-16], the inhibition at 0.1 µM at Hep G2 cells came to 49%.

Consider `CC(C)(C)n1nc(-c2ccccc2)c2c(-c3ccc(F)cc3)c(/C=C/C(O)CC(O)CC(=O)O)c(C3CC3)nc21` (stereo not shown) [Compound I-5-17], for which the inhibition at 0.1 µM on Hep G2 cells was found to be 36%.
